Data taken from patent US9828385B2, “Spiro-oxazolones” (Hoffmann-La Roche Inc., priority 2014, dated 2017).

Molecular target: T1, human V1a receptor (Homo sapiens, UniProt P37288)
T1 construct: expressed in transfected cells; host or cells: HEK293 cells, transiently transfected; cell membranes
Assay: human V1a receptor binding studies (3H-Vasopressin, SPA beads)
Conditions: membranes of HEK293 cells transiently transfected with human V1a receptor, Ki by Cheng-Prussoff from IC50, read-out: pKi hV1a (converted)
Procedure, shortened: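 Membranes from transiently transfected HEK293 cells expressing cloned human V1a receptor, on yttrium silicate SPA beads, competed against 4 nM 3H-vasopressin (added stock concentration) in Tris buffer with NaCl, KCl, CaCl2, MgCl2 for 1 h at room temperature. Nonspecific binding with cold vasopressin; IC50 by nonlinear fit, Ki via Cheng-Prusoff.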

T1 sequence (P37288 whole entry): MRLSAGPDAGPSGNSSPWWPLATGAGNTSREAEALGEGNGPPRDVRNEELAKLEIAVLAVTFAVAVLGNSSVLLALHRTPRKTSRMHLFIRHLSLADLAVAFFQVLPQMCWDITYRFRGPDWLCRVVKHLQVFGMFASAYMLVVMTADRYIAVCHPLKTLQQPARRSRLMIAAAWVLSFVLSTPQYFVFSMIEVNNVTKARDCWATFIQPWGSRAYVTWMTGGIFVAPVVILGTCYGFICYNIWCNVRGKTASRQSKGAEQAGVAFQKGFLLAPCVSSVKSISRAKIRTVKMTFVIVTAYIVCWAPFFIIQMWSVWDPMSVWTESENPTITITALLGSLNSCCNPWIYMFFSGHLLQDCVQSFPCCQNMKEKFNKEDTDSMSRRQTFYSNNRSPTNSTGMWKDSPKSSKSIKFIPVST

Structure (SMILES)	Ki [nM]
C=CCC1(CC(=C)C)OC(N2CCC3(CC2)OCc2ccccc23)=NC1=O (stereo not shown) [Example 59, 5-Allyl-5-(2-methylallyl)-2-(1′H,3H-spiro[2-benzofuran-1,4′-piperidin]-1′-yl)-1,3-oxazol-4(5H)-one]	10
C=CCC1(CC(=C)C(F)(F)F)OC(N2CCC3(CC2)OCc2ccccc23)=NC1=O (stereo not shown) [Example 60, 5-(Prop-2-en-1-yl)-2-(1′H,3H-spiro[2-benzofuran-1,4′-piperidin]-1′-yl)-5-[2-(trifluoromethyl)prop-2-en-1-yl]-1,3-oxazol-4(5H)-one]	25.1
C#CCC1(CC(=C)C(=O)OCC)OC(N2CCC3(CC2)OCc2ccccc23)=NC1=O (stereo not shown) [Example 62, Ethyl 2-((4-oxo-5-(prop-2-ynyl)-2-(3H-spiro[isobenzofuran-1,4′-piperidine]-1′-yl)-4,5-dihydrooxazol-5-yl)methyl)acrylate]	631
C=CCC1(CC(=C)Br)OC(N2CCC3(CC2)OCc2ccccc23)=NC1=O (stereo not shown) [Example 63, 5-(2-Bromoprop-2-en-1-yl)-5-(prop-2-en-1-yl)-2-(1′H,3H-spiro[2-benzofuran-1,4′-piperidin]-1′-yl)-1,3-oxazol-4(5H)-one]	12.6
CCCCC1(C)OC(N2CCC3(CC2)OC(=O)c2ccccc23)=NC1=O (stereo not shown) [Example 69, 1′-(5-Butyl-5-methyl-4-oxo-4,5-dihydro-1,3-oxazol-2-yl)-3H-spiro[2-benzofuran-1,4′-piperidin]-3-one]	316
CCC1(Cc2ccccc2)OC(N2CCC3(CC2)OCc2ccccc23)=NC1=O (stereo not shown) [Example 74, 5-Benzyl-5-ethyl-2-(1′H,3H-spiro[2-benzofuran-1,4′-piperidin]-1′-yl)-1,3-oxazol-4(5H)-one]	10
CC1(Cc2ccc(Cl)cc2)OC(N2CCC3(CC2)OCc2ccccc23)=NC1=O (stereo not shown) [Example 75, 5-(4-Chlorobenzyl)-5-methyl-2-(1′H,3H-spiro[2-benzofuran-1,4′-piperidin]-1′-yl)-1,3-oxazol-4(5H)-one]	3.98
CC1(CC2CCCCC2)OC(N2CCC3(CC2)OCc2ccccc23)=NC1=O (stereo not shown) [Example 79, 5-(Cyclohexylmethyl)-5-methyl-2-(1′H,3H-spiro[2-benzofuran-1,4′-piperidin]-1′-yl)-1,3-oxazol-4(5H)-one]	20
CC1(Cc2ccc(Cl)nc2)OC(N2CCC3(CC2)OCc2ccccc23)=NC1=O (stereo not shown) [Example 82, 5-[(6-Chloropyridin-3-yl)methyl]-5-methyl-2-(1′H,3H-spiro[2-benzofuran-1,4′-piperidin]-1′-yl)-1,3-oxazol-4(5H)-one]	50.1
CC1(C(F)(F)c2ccc(C(F)F)cc2)OC(N2CCC3(CC2)OCc2ccccc23)=NC1=O (stereo not shown) [Example 89, 5-{[4-(Difluoromethyl)phenyl](difluoro)methyl}-5-methyl-2-(1′H,3H-spiro[2-benzofuran-1,4′-piperidin]-1′-yl)-1,3-oxazol-4(5H)-one]	158
CC1(C(F)c2ccc(Cl)cc2)OC(N2CCC3(CC2)OCc2ccccc23)=NC1=O (stereo not shown) [Example 92, 5-[(4-Chlorophenyl)(fluoro)methyl]-5-methyl-2-(1′H,3H-spiro[2-benzofuran-1,4′-piperidin]-1′-yl)-1,3-oxazol-4(5H)-one]	31.6
O=C1N=C(N2CCC3(CC2)OCc2ccccc23)OC1(Cc1ccc(Cl)cc1)Cc1ccc(Cl)cc1 [Example 94, 5,5-bis(4-Chlorobenzyl)-2-(1′H,3H-spiro[2-benzofuran-1,4′-piperidin]-1′-yl)-1,3-oxazol-4(5H)-one]	1
CC1(CC2CCCO2)OC(N2CCC3(CC2)OCc2ccccc23)=NC1=O (stereo not shown) [Example 101, 5-Methyl-2-(1′H,3H-spiro[2-benzofuran-1,4′-piperidin]-1′-yl)-5-(tetrahydrofuran-2-ylmethyl)-1,3-oxazol-4(5H)-one]	200
O=C1N=C(N2CCC3(CC2)OCc2ccccc23)OC12CC=CC2 [Example 113, 2-(1′H,3H-Spiro[2-benzofuran-1,4′-piperidin]-1′-yl)-1-oxa-3-azaspiro[4.4]nona-2,7-dien-4-one]	100
CC1=C(C)CC2(C1)OC(N1CCC3(CC1)OCc1ccccc13)=NC2=O [Example 115, 7,8-Dimethyl-2-(1′H,3H-spiro[2-benzofuran-1,4′-piperidin]-1′-yl)-1-oxa-3-azaspiro[4.4]nona-2,7-dien-4-one]	10
O=C1N=C(N2CCC3(CC2)OCc2ccccc23)OC12CC=C(CO)C2 (stereo not shown) [Example 119, 7-(Hydroxymethyl)-2-(3H-spiro[isobenzofuran-1,4′-piperidine]-1′-yl)-1-oxa-3-azaspiro[4.4]nona-2,7-dien-4-one]	1000

Results, then the compound that gave them:

Ki [nM]	Structure (SMILES)
50.1	C=CCC1(CC=C)OC(N2CCC3(CC2)OCc2ccccc23)=NC1=O [Example 58, 5,5-Di(prop-2-en-1-yl)-2-(1′H,3H-spiro[2-benzofuran-1,4′-piperidin]-1′-yl)-1,3-oxazol-4(5H)-one]
794	C=CCC1(CC(=C)C(=O)OCC)OC(N2CCC3(CC2)OCc2ccccc23)=NC1=O (stereo not shown) [Example 61, Ethyl 2-{[4-oxo-5-(prop-2-en-1-yl)-2-(1′H,3H-spiro[2-benzofuran-1,4′-piperidin]-1′-yl)-4,5-dihydro-1,3-oxazol-5-yl]methyl}prop-2-enoate]
12.6	C=C(CC1(CC(=C)C(F)(F)F)OC(N2CCC3(CC2)OCc2ccccc23)=NC1=O)C(F)(F)F [Example 64, 2-(3H-Spiro[isobenzofuran-1,4′-piperidine]-1′-yl)-5,5-bis(2-(trifluoromethyl)allyl)oxazol-4(5H)-one]
63.1	C=CCC1(CC(=C)CO[Si](C)(C)C(C)(C)C)OC(N2CCC3(CC2)OCc2ccccc23)=NC1=O (stereo not shown) [Example 65, 5-[2-({[tert-Butyl(dimethyl)silyl]oxy}methyl)prop-2-en-1-yl]-5-(prop-2-en-1-yl)-2-(1′H,3H-spiro[2-benzofuran-1,4′-piperidin]-1′-yl)-1,3-oxazol-4(5H)-one]
39.8	CCCCC1(C)OC(N2CCC3(CC2)OCc2ccccc23)=NC1=O (stereo not shown) [Example 66, 5-Butyl-5-methyl-2-(1′H,3H-spiro[2-benzofuran-1,4′-piperidin]-1′-yl)-1,3-oxazol-4(5H)-one]
5.01	CC1(CC2CCCC2)OC(N2CCC3(CC2)OCc2ccccc23)=NC1=O (stereo not shown) [Example 76, 5-(Cyclopentylmethyl)-5-methyl-2-(1′H,3H-spiro[2-benzofuran-1,4′-piperidin]-1′-yl)-1,3-oxazol-4(5H)-one]
5.01	CC1(Cc2ccc(Cl)s2)OC(N2CCC3(CC2)OCc2ccccc23)=NC1=O (stereo not shown) [Example 85, 5-[(5-Chlorothiophen-2-yl)methyl]-5-methyl-2-(1′H,3H-spiro[2-benzofuran-1,4′-piperidin]-1′-yl)-1,3-oxazol-4(5H)-one]
79.4	CC1(Cc2c(F)c(F)c(F)c(F)c2F)OC(N2CCC3(CC2)OCc2ccccc23)=NC1=O (stereo not shown) [Example 88, 5-Methyl-5-(pentafluorobenzyl)-2-(1′H,3H-spiro[2-benzofuran-1,4′-piperidin]-1′-yl)-1,3-oxazol-4(5H)-one]
126	CC1(C(O)c2ccccc2)OC(N2CCC3(CC2)OCc2ccccc23)=NC1=O (stereo not shown) [Example 90, 5-[Hydroxy(phenyl)methyl]-5-methyl-2-(1′H,3H-spiro[2-benzofuran-1,4′-piperidin]-1′-yl)-1,3-oxazol-4(5H)-one]
25.1	CC1(C(O)c2ccc(Cl)cc2)OC(N2CCC3(CC2)OCc2ccccc23)=NC1=O (stereo not shown) [Example 91, 5-[(4-Chlorophenyl)(hydroxy)methyl]-5-methyl-2-(1′H,3H-spiro[2-benzofuran-1,4′-piperidin]-1′-yl)-1,3-oxazol-4(5H)-one]
126	CC1(C(O)c2ccc(Cl)cc2)OC(N2CCC3(CC2)OC(=O)c2ccccc23)=NC1=O (stereo not shown) [Example 93, 1′-{5-[(4-Chlorophenyl)(hydroxy)methyl]-5-methyl-4-oxo-4,5-dihydro-1,3-oxazol-2-yl}-3H-spiro[2-benzofuran-1,4′-piperidin]-3-one]
5.01	O=C1OC2(CCN(C3=NC(=O)C(Cc4ccc(Cl)cc4)(Cc4ccc(Cl)cc4)O3)CC2)c2ccccc21 [Example 95, 1′-[5,5-Bis(4-chlorobenzyl)-4-oxo-4,5-dihydro-1,3-oxazol-2-yl]-3H-spiro[2-benzofuran-1,4′-piperidin]-3-one]
251	CC1(CN2CCCC2)OC(N2CCC3(CC2)OCc2ccccc23)=NC1=O (stereo not shown) [Example 98, 5-Methyl-5-(pyrrolidin-1-ylmethyl)-2-(1′H,3H-spiro[2-benzofuran-1,4′-piperidin]-1′-yl)-1,3-oxazol-4(5H)-one]
158	O=C1N=C(N2CCC3(CC2)OCc2ccccc23)OC12CCCC2 [Example 112, 2-(3H-Spiro[isobenzofuran-1,4′-piperidine]-1′-yl)-1-oxa-3-azaspiro[4.4]non-2-en-4-one]
12.6	CC1=CCC2(C1)OC(N1CCC3(CC1)OCc1ccccc13)=NC2=O (stereo not shown) [Example 114, 7-Methyl-2-(1′H,3H-spiro[2-benzofuran-1,4′-piperidin]-1′-yl)-1-oxa-3-azaspiro[4.4]nona-2,7-dien-4-one]
126	CCOC(=O)C1=CCC2(C1)OC(N1CCC3(CC1)OCc1ccccc13)=NC2=O (stereo not shown) [Example 116, Ethyl 4-oxo-2-(1′H,3H-spiro[2-benzofuran-1,4′-piperidin]-1′-yl)-1-oxa-3-azaspiro[4.4]nona-2,7-diene-7-carboxylate]
1.26	O=C1N=C(N2CCC3(CC2)OCc2ccccc23)OC12CC=C(C(F)(F)F)C2 (stereo not shown) [Example 117, 2-(1′H,3H-Spiro[2-benzofuran-1,4′-piperidin]-1′-yl)-7-(trifluoromethyl)-1-oxa-3-azaspiro[4.4]nona-2,7-dien-4-one]
316	CC(C)(C)[Si](C)(C)OCC1=CCC2(C1)OC(N1CCC3(CC1)OCc1ccccc13)=NC2=O (stereo not shown) [Example 118, 7-({[tert-Butyl(dimethyl)silyl]oxy}methyl)-2-(1′H,3H-spiro[2-benzofuran-1,4′-piperidin]-1′-yl)-1-oxa-3-azaspiro[4.4]nona-2,7-dien-4-one]
